Results published in patent publication US7579462B2, “Process for preparing 17-allyl amino geldanamycin (17-aag) and other ansamycins” (Conforma Therapeutics Corporation, priority 2001, dated 2009).

Assay: Relative solubility of 17-AAG polymorphs in solvents and oils
Assay type: physicochemical
Details: lower melting point form (about 147-153° C.) compared with higher melting point form (about 200-212° C.) of 17-AAG; at room temperature
Excerpt: Indeed, one aspect of the invention is the ability to form and exploit different polymorphic structures. […] The water may be premixed with the ethanol or later added to the ethanol solution already containing 17-AAG dissolved therein. […] Depending on the end-goal, one may readily convert one form to another simply by dissolving and crystallizing in the appropriate solvent.

Compound: C=CCNC1=C2C[C@@H](C)C[C@H](OC)[C@H](O)[C@@H](C)/C=C(\C)[C@H](OC(N)=O)[C@@H](OC)/C=C\C=C(/C)C(=O)NC(=CC1=O)C2=O [17-AAG, 17-allylamino-geldanamycin]
- solubility in a variety of solvents and oils: more readily soluble
